Source: patent US20180327367A1, “MACROCYCLIC BROAD SPECTRUM ANTIBIOTICS” (priority 2015, published 2018)
Values after ≈ are worked out from the molar mass of the structure shown. Read-outs that look alike come from different tables or passages of the source.

Assays:
[1] = tested on: Escherichia coli ATCC 25922; test: Minimum inhibitory concentration, broth micro-dilution (CLSI), E. coli; type: cell-based; conditions: Escherichia coli, ATCC25922, 22 h, 35° C., 22 hours
[2] = target: T1, SpsB (Staphylococcus aureus signal peptidase) (Staphylococcus aureus, UniProt P0A070); test: cell-based; type: biochemical; conditions: SpsB IC50, whole-cell S. aureus (USA300 background, overexpressing SpsB) as SpsB source; fluorogenic peptide substrate, kinetic read 30 min
T1 construct: This assay uses a suspension of Staphylococcus aureus cells as a source of SpsB instead of recombinant SpsB protein; endogenous in cells; host or cells: S. aureus, USA300 background, overexpressing SpsB (whole-cell suspension from frozen pellets)
T1 sequence (P0A070 whole entry): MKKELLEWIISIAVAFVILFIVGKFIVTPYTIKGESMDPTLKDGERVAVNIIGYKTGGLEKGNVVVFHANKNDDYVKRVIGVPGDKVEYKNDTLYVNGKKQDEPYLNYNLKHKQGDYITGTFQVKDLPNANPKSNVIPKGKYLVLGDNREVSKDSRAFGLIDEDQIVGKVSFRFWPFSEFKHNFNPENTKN
Procedure, shortened: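 Cleavage of an internally quenched (Dabcyl)βAla-KPAKAAE(Edans) peptide, added as 20 μM solution mixed 1:1 with cells, was followed for 30 min at 340/490 nm. SpsB came from a suspension of SpsB-overexpressing USA300 S. aureus in Tween-80-containing PBS buffer. Slopes plotted against 3-fold compound dilutions gave IC50.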

[3] = tested on: Methicillin Resistant Staphylococcus aureus strain USA 300, NRS384; test: Minimum inhibitory concentration, broth micro-dilution (CLSI), S. aureus; type: cell-based; conditions: Staphylococcus aureus, MRSA / NRS 384 / USA300, 22 h, 35° C., 22 hours
Procedure, shortened: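 Colonies grown 20 hours at 35° C were suspended in cation-adjusted Mueller Hinton Broth with 0.002% Tween-80. Cells were then added to 2-fold compound dilutions starting at 4 or 0.5 μg/mL, at OD600 0.0005.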

[4] = tested on: Escherichia coli MC4100 harboring the IMP4213 (E. coli IMP); test: microbe, parasite or virus in culture; type: cell-based; conditions: Escherichia coli, 22 h, read-out: MIC (μg/mL) E. coli IMP, E. coli MC4100 IMP4213, increased outer-membrane permeability; 35° C., 22 hours
Procedure, shortened: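 Ten 2-fold dilutions, from 4 μg/mL or from 0.5 μg/mL depending on protocol, are challenged with bacteria at OD600 0.0005 in Tween-80-supplemented cation-adjusted Mueller Hinton Broth. Plates incubate 22 hours at 35° C per CLSI. The E. coli IMP4213 strain has increased outer-membrane permeability.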

[5] = E. coli ATCC 25922, read-out: MIC (μg/mL) E. coli
[6] = MRSA USA 300 NRS384, read-out: MIC (μg/mL) S. aureus
[7] = read-out: MIC (μg/mL) E. coli, E. coli ATCC 25922
[8] = read-out: MIC (μg/mL) S. aureus, MRSA USA 300 NRS384

Cc1cc(OCC2CCCCC2)ccc1C(=O)N[C@@H](CCN)C(=O)N(C)[C@@H]1C(=O)N[C@@H](C)C(=O)N[C@H](C(=O)NCC#N)Cc2ccc(OCCN)c(c2)-c2cc1ccc2OCCN [Compound 275]
MIC [1, 5]: 0.38 µg/mL (≈ 0.438 µM)
IC50 [2]: 0.55 nM
MIC [3, 6]: 0.063 µg/mL (≈ 0.0726 µM)
MIC [4]: 0.014 µg/mL (≈ 0.0161 µM)

Cc1cc(OCC(C)C)ccc1C(=O)N[C@@H](CCN)C(=O)N(C)[C@@H]1C(=O)N[C@@H](C)C(=O)N[C@H](C(=O)NCC#N)Cc2ccc(OCCN)c(c2)-c2cc1ccc2OCCN [Compound 276]
MIC [1, 5]: 2 µg/mL (≈ 2.42 µM)
IC50 [2]: 1.8 nM
MIC [3, 6]: 0.58 µg/mL (≈ 0.7 µM)
MIC [4]: 0.031 µg/mL (≈ 0.0374 µM)

Cc1cc(OCCC(C)(C)C)ccc1C(=O)N[C@@H](CCN)C(=O)N(C)[C@@H]1C(=O)N[C@@H](C)C(=O)N[C@H](C(=O)NCC#N)Cc2ccc(OCCN)c(c2)-c2cc1ccc2OCCN [Compound 277]
MIC [1, 5]: 1 µg/mL (≈ 1.17 µM)
IC50 [2]: 1.1 nM
MIC [3, 6]: 0.063 µg/mL (≈ 0.0736 µM)
MIC [4]: 0.012 µg/mL (≈ 0.014 µM)

Cc1cc(OCC(C)(C)C)ccc1C(=O)N[C@@H](CCN)C(=O)N(C)[C@@H]1C(=O)N[C@@H](C)C(=O)N[C@H](C(=O)NCC#N)Cc2ccc(OCCN)c(c2)-c2cc1ccc2OCCN [Compound 280]
MIC [1, 5]: 0.63 µg/mL (≈ 0.748 µM)
IC50 [2]: 2 nM
MIC [3, 6]: 0.13 µg/mL (≈ 0.154 µM)
MIC [4]: 0.027 µg/mL (≈ 0.0321 µM)

CCCCCCCOc1ccc(C(=O)N[C@@H](CCCN)C(=O)N(C)[C@@H]2C(=O)N[C@@H](C)C(=O)N[C@H](C(=O)NCC#N)Cc3ccc(OCCN)c(c3)-c3cc2ccc3OCCN)c(C)c1 [Compound 281]
MIC [1, 5]: 0.25 µg/mL (≈ 0.283 µM)
IC50 [2]: 0.75 nM
MIC [3, 6]: 0.023 µg/mL (≈ 0.026 µM)
MIC [4]: 0.0078 µg/mL (≈ 0.00882 µM)

CCCCCCCOc1ccc(C(=O)N[C@@H](CCCN)C(=O)N(C)[C@@H]2C(=O)N[C@@H](C)C(=O)N[C@H](C(=O)NCC#N)Cc3ccc(OCCN)c(c3)-c3cc2ccc3OCCN)c(Cl)c1 [Compound 282]
MIC [1, 5]: 0.25 µg/mL (≈ 0.276 µM)
IC50 [2]: 0.71 nM
MIC [3, 6]: 0.016 µg/mL (≈ 0.0177 µM)
MIC [4]: 0.0078 µg/mL (≈ 0.00862 µM)

CCCCC#CCOc1ccc(C(=O)N[C@@H](CCN)C(=O)N(C)[C@@H]2C(=O)N[C@@H](C)C(=O)N[C@H](C(=O)NCC#N)Cc3ccc(OCCN)c(c3)-c3cc2ccc3OCCN)c(Cl)c1 [Compound 283]
MIC [1, 5]: 1 µg/mL (≈ 1.13 µM)
IC50 [2]: 0.87 nM
MIC [3, 6]: 0.063 µg/mL (≈ 0.0711 µM)
MIC [4]: 0.012 µg/mL (≈ 0.0135 µM)

C#CCC(C)(C)COc1ccc(C(=O)N[C@@H](CCN)C(=O)N(C)[C@@H]2C(=O)N[C@@H](C)C(=O)N[C@H](C(=O)NCC#N)Cc3ccc(OCCN)c(c3)-c3cc2ccc3OCCN)c(C)c1 [Compound 284]
MIC [1, 7]: 1 µg/mL (≈ 1.15 µM)
IC50 [2]: 0.82 nM
MIC [3, 8]: 0.13 µg/mL (≈ 0.15 µM)
MIC [4]: 0.012 µg/mL (≈ 0.0139 µM)

CCCC(C)(C)COc1ccc(C(=O)N[C@@H](CCN)C(=O)N(C)[C@@H]2C(=O)N[C@@H](C)C(=O)N[C@H](C(=O)NCC#N)Cc3ccc(OCCN)c(c3)-c3cc2ccc3OCCN)c(C)c1 [Compound 288]
MIC [1, 5]: 0.25 µg/mL (≈ 0.287 µM)
IC50 [2]: 1.1 nM
MIC [3, 6]: 0.063 µg/mL (≈ 0.0724 µM)
MIC [4]: 0.0078 µg/mL (≈ 0.00896 µM)

Cc1cc(OCC2(C)CCCCC2)ccc1C(=O)N[C@@H](CCN)C(=O)N(C)[C@@H]1C(=O)N[C@@H](C)C(=O)N[C@H](C(=O)NCC#N)Cc2ccc(OCCN)c(c2)-c2cc1ccc2OCCN [Compound 289]
MIC [1, 5]: 0.25 µg/mL (≈ 0.283 µM)
IC50 [2]: 0.93 nM
MIC [3, 6]: 0.031 µg/mL (≈ 0.0351 µM)
MIC [4]: 0.0078 µg/mL (≈ 0.00884 µM)

CCCCCCCOc1cc(Cl)c(C(=O)N[C@@H](CCN)C(=O)N(C)[C@@H]2C(=O)N[C@@H](C)C(=O)N[C@H](C(=O)NCC#N)Cc3ccc(OCCN)c(c3)-c3cc2ccc3OCCN)c(Cl)c1 [Compound 290]
MIC [1, 7]: 0.38 µg/mL (≈ 0.411 µM)
IC50 [2]: 1.2 nM
MIC [3, 8]: 0.063 µg/mL (≈ 0.0681 µM)
MIC [4]: 0.012 µg/mL (≈ 0.013 µM)

CCCCCCCOc1cc(F)c(C(=O)N[C@@H](CCN)C(=O)N(C)[C@@H]2C(=O)N[C@@H](C)C(=O)N[C@H](C(=O)NCC#N)Cc3ccc(OCCN)c(c3)-c3cc2ccc3OCCN)c(Cl)c1 [Compound 291]
MIC [1, 5]: 0.19 µg/mL (≈ 0.209 µM)
IC50 [2]: 1.3 nM
MIC [3, 6]: 0.063 µg/mL (≈ 0.0693 µM)
MIC [4]: 0.0078 µg/mL (≈ 0.00859 µM)

CCCCCCCOc1cc(C)c(C(=O)N[C@@H](CCN)C(=O)N(C)[C@@H]2C(=O)N[C@@H](C)C(=O)N[C@H](C(=O)NCC#N)Cc3ccc(OCCN)c(c3)-c3cc2ccc3OCCN)c(C)c1 [Compound 292]
MIC [1, 5]: 0.38 µg/mL (≈ 0.43 µM)
IC50 [2]: 1.2 nM
MIC [3, 6]: 0.047 µg/mL (≈ 0.0532 µM)
MIC [4]: 0.0078 µg/mL (≈ 0.00882 µM)

CCCCCCCOc1c(F)cc(C(=O)N[C@@H](CCN)C(=O)N(C)[C@@H]2C(=O)N[C@@H](C)C(=O)N[C@H](C(=O)NCC#N)Cc3ccc(OCCN)c(c3)-c3cc2ccc3OCCN)cc1Cl [Compound 293]
MIC [1, 5]: 0.38 µg/mL (≈ 0.418 µM)
IC50 [2]: 1.5 nM
MIC [3, 6]: 0.063 µg/mL (≈ 0.0693 µM)
MIC [4]: < 0.0039 µg/mL

CCCCCCCOc1ccc(C(=O)N[C@@H](CCN)C(=O)N(C)[C@@H]2C(=O)N[C@@H](C)C(=O)N[C@H](C(=O)NCC#N)Cc3ccc(OCCN)c(c3)-c3cc2ccc3OCCN)c2ccccc12 [Compound 295]
MIC [1, 5]: 0.13 µg/mL (≈ 0.143 µM)
IC50 [2]: 0.69 nM
MIC [3, 6]: 0.031 µg/mL (≈ 0.0342 µM)
MIC [4]: < 0.0039 µg/mL

CCCCCCOCc1ccc(C(=O)N[C@@H](CCN)C(=O)N(C)[C@@H]2C(=O)N[C@@H](C)C(=O)N[C@H](C(=O)NCC#N)Cc3ccc(OCCN)c(c3)-c3cc2ccc3OCCN)c(C)c1 [Compound 298]
MIC [1, 5]: 1 µg/mL (≈ 1.15 µM)
IC50 [2]: 0.82 nM
MIC [3, 6]: 0.063 µg/mL (≈ 0.0724 µM)
MIC [4]: 0.0078 µg/mL (≈ 0.00896 µM)

CCCCCCCOc1cc(C)c(C(=O)N[C@@H](CCN)C(=O)N(C)[C@@H]2C(=O)N[C@@H](C)C(=O)N[C@H](C(=O)NCC#N)Cc3ccc(OCCN)c(c3)-c3cc2ccc3OCCN)c(Cl)c1 [Compound 299]
MIC [1, 5]: 0.5 µg/mL (≈ 0.553 µM)
IC50 [2]: 1.1 nM
MIC [3, 6]: 0.094 µg/mL (≈ 0.104 µM)
MIC [4]: 0.016 µg/mL (≈ 0.0177 µM)

CCCCc1ccc(Oc2ccc(C(=O)N[C@@H](CCN)C(=O)N(C)[C@@H]3C(=O)N[C@@H](C)C(=O)N[C@H](C(=O)NCC#N)Cc4ccc(OCCN)c(c4)-c4cc3ccc4OCCN)c(C)c2)cc1 [Compound 303]
MIC [1, 5]: 0.19 µg/mL (≈ 0.21 µM)
IC50 [2]: 0.93 nM
MIC [3, 6]: 0.047 µg/mL (≈ 0.052 µM)
MIC [4]: 0.012 µg/mL (≈ 0.0133 µM)

Cc1nc(Oc2ccc(CC(C)C)cc2)ncc1C(=O)N[C@@H](CCN)C(=O)N(C)[C@@H]1C(=O)N[C@@H](C)C(=O)N[C@H](C(=O)NCC#N)Cc2ccc(OCCN)c(c2)-c2cc1ccc2OCCN [Compound 304]
MIC [1, 5]: 1 µg/mL (≈ 1.1 µM)
IC50 [2]: 0.68 nM
MIC [3, 6]: 0.047 µg/mL (≈ 0.0519 µM)
MIC [4]: 0.016 µg/mL (≈ 0.0177 µM)

Cc1nc(Oc2ccc(C(C)(C)C)cc2)ncc1C(=O)N[C@@H](CCN)C(=O)N(C)[C@@H]1C(=O)N[C@@H](C)C(=O)N[C@H](C(=O)NCC#N)Cc2ccc(OCCN)c(c2)-c2cc1ccc2OCCN [Compound 305]
MIC [1, 5]: 1 µg/mL (≈ 1.1 µM)
IC50 [2]: 0.73 nM
MIC [3, 6]: 0.063 µg/mL (≈ 0.0695 µM)
MIC [4]: 0.016 µg/mL (≈ 0.0177 µM)

CCCCc1ccc(Oc2ncc(C(=O)N[C@@H](CCN)C(=O)N(C)[C@@H]3C(=O)N[C@@H](C)C(=O)N[C@H](C(=O)NCC#N)Cc4ccc(OCCN)c(c4)-c4cc3ccc4OCCN)c(C)n2)cc1 [Compound 306]
MIC [1, 5]: 1 µg/mL (≈ 1.1 µM)
IC50 [2]: 0.69 nM
MIC [3, 6]: 0.031 µg/mL (≈ 0.0342 µM)
MIC [4]: 0.0078 µg/mL (≈ 0.00861 µM)

CCCC#Cc1ccc(C(=O)N[C@@H](CCN)C(=O)N(C)[C@@H]2C(=O)N[C@@H](C)C(=O)N[C@H](C(=O)NCC#N)Cc3ccc(OCCN)c(c3)-c3cc2ccc3OCCN)c(C)c1 [Compound 307]
MIC [1, 5]: 0.88 µg/mL (≈ 1.07 µM)
IC50 [2]: 3.5 nM
MIC [3, 6]: 0.25 µg/mL (≈ 0.304 µM)
MIC [4]: 0.031 µg/mL (≈ 0.0377 µM)

CCC/C=C\c1ccc(C(=O)N[C@@H](CCN)C(=O)N(C)[C@@H]2C(=O)N[C@@H](C)C(=O)N[C@H](C(=O)NCC#N)Cc3ccc(OCCN)c(c3)-c3cc2ccc3OCCN)c(C)c1 [Compound 308]
MIC [1, 5]: 1 µg/mL (≈ 1.21 µM)
IC50 [2]: 0.71 nM
MIC [3, 6]: 0.063 µg/mL (≈ 0.0765 µM)
MIC [4]: 0.016 µg/mL (≈ 0.0194 µM)
